Test systems include ACHN renal; CAKI-1 renal; HCC-2998 colon; IGROV1 ovarian; NCI-H226 lung; NCI-H522 lung; OVCAR-3 ovarian; SF-539 CNS; T-47D breast; U251 CNS.
Experiment in all cases: inhibition of tumour cell growth, NCI panel, 48 h

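Results reflect a 48-hour exposure of cells in 96-well plates to compound at five concentrations. At the GI50, growth is halved. Definition used: TGI = concentration required for complete inhibition of growth.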

For the molecule `CC1(C)CC[C@]2(C(=O)O)CC[C@]3(C)C(=CC[C@@H]4[C@@]5(C)C[C@H](O)[C@H](O)[C@@](C)(C(=O)O)[C@@H]5CC[C@]43C)[C@@H]2C1`, the TGI with ACHN renal, in the assay on CAKI-1 renal, in the assay with HCC-2998 colon, in the assay on IGROV1 ovarian, with NCI-H226 lung and in the assay with NCI-H522 lung was above 100000 nM in each case. The TGI in the assay with OVCAR-3 ovarian, in the assay on SF-539 CNS, in the assay with T-47D breast and in the assay with U251 CNS was above 100000 nM each time.
On to `S=C(NCCNC(=S)[S][Sn]([c]1ccccc1)([c]1ccccc1)[c]1ccccc1)[S][Sn]([c]1ccccc1)([c]1ccccc1)[c]1ccccc1`, for which the GI50 with ACHN renal was 18.5 nM; in the assay on CAKI-1 renal it was 38.6 nM; in the assay on HCC-2998 colon it was 21.9 nM; in the assay on IGROV1 ovarian, 42.9 nM; with NCI-H226 lung, 63.9 nM; in the assay with NCI-H522 lung it was 26.5 nM. Further, the GI50 with OVCAR-3 ovarian was 14.5 nM; in the assay on SF-539 CNS it was 68.2 nM; in the assay on T-47D breast, 20 nM; with U251 CNS, 18.7 nM. The TGI came to 62.4 nM in the assay with ACHN renal; 146 nM in the assay on CAKI-1 renal; 76.4 nM with HCC-2998 colon; 216 nM in the assay on IGROV1 ovarian; 144 nM in the assay on NCI-H226 lung; 94.1 nM in the assay on NCI-H522 lung. Further, the TGI with OVCAR-3 ovarian is 38.4 nM; in the assay on SF-539 CNS, 203 nM; in the assay on T-47D breast, 91 nM; with U251 CNS it was 64 nM.
Turning to `CCc1nc(N)nc(N)c1-c1ccc2nnn(O)c2c1`, the TGI in the assay with ACHN renal, with CAKI-1 renal, in the assay on HCC-2998 colon, in the assay on IGROV1 ovarian, in the assay on NCI-H226 lung and with NCI-H522 lung was above 100000 nM each time. For the same molecule, the TGI in the assay with OVCAR-3 ovarian, in the assay with SF-539 CNS, with T-47D breast and in the assay with U251 CNS was above 100000 nM throughout.

These data come from PubChem BioAssay (NCI).
